# Reference: patent US9212182B2, “Bicyclic sulfonamide compounds as sodium channel inhibitors” (AMGEN INC., priority 2013, dated 2015)
# pIC50: −log10 of the molar value.
# Target: Nav 1.7 (Homo sapiens (Human), UniProt Q15858)
# Experiment: in-vitro Nav 1.7 PX (IC50)
# Type: cell-based
# Conditions: not given
# Chain of Nav 1.7 (Q15858 whole entry): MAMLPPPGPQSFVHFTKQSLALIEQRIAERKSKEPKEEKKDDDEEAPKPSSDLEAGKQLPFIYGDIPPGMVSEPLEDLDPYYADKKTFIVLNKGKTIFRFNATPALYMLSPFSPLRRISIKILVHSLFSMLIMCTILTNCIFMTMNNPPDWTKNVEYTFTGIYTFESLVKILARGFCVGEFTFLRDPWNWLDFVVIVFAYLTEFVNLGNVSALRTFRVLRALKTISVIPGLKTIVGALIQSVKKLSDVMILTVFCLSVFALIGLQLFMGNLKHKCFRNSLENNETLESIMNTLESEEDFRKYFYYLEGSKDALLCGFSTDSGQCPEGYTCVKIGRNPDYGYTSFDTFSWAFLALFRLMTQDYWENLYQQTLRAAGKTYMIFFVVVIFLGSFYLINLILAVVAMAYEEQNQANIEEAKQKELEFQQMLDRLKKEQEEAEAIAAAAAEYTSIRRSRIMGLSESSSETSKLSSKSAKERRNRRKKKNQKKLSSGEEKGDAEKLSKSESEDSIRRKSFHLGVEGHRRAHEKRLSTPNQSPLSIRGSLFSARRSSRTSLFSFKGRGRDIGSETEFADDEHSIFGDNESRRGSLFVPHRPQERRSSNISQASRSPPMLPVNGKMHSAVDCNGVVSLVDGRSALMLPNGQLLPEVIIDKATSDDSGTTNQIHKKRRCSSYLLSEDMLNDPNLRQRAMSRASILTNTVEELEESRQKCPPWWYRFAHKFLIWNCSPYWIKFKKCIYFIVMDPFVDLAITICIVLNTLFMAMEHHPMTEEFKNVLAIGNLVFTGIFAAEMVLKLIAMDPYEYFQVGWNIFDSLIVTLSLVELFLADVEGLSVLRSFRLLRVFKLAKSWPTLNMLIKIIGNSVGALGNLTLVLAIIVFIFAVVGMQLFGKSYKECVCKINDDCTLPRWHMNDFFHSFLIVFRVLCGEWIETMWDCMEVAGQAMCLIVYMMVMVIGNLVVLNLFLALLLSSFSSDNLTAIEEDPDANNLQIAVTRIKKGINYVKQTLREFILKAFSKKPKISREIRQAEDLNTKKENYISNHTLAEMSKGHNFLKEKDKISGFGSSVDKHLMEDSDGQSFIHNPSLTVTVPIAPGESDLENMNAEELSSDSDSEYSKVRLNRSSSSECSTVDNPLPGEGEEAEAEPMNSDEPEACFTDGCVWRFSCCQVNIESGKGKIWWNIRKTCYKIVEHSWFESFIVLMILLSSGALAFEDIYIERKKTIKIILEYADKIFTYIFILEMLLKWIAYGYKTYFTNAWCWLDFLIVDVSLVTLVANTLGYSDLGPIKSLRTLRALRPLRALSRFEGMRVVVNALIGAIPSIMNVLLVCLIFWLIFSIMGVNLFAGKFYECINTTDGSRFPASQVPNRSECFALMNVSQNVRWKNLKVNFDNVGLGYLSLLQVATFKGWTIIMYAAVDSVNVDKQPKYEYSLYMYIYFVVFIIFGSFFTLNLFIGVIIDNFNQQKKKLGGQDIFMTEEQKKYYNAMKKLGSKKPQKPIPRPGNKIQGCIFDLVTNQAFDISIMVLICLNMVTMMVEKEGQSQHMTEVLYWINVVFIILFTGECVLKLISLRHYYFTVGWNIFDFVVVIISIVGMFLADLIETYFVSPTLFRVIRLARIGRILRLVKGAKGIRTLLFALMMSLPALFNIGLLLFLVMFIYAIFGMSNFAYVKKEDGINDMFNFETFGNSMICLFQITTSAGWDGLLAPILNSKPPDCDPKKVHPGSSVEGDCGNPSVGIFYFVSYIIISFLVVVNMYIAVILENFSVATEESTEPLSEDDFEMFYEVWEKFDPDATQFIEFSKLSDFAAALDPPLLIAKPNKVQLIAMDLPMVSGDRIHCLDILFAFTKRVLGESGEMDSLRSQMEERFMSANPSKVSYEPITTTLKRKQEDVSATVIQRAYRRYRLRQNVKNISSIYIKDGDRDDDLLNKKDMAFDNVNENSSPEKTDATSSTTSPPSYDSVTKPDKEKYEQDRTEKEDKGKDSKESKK
row,pIC50,Structure (SMILES)
1,8.00,"COc1cc(-c2cccc(Cl)c2)c(C)cc1-n1c(=O)ccc2cc(S(=O)(=O)Nc3ncccn3)ccc21 (atropisomer, axis not shown; (P)) [Example 321, (P)-1-(3′-chloro-5-methoxy-2-methyl-4-biphenylyl)-2-oxo-N-2-pyrimidinyl-1,2-dihydro-6-quinolinesulfonamide]"
2,7.27,"COc1ccc(-c2cccc(F)c2)cc1-n1c(=O)ccc2cc(S(=O)(=O)Nc3ccon3)ccc21 (atropisomer, axis not shown; (P)) [Example 483, (P)-1-(3′-fluoro-4-methoxy-3-biphenylyl)-N-3-isoxazolyl-2-oxo-1,2-dihydro-6-quinolinesulfonamide]"

# Second part, the molecule before the results:
row,Structure (SMILES),pIC50
1,"COc1nc(O[C@H](C)C(F)(F)C(F)F)c(Cl)cc1-n1c(=O)ccc2cc(S(=O)(=O)Nc3ccon3)ccc21 [Example 1212, 1-(5-chloro-2-methoxy-6-(((1R)-2,2,3,3-tetrafluoro-1-methylpropyl)oxy)-3-pyridinyl)-N-3-isoxazolyl-2-oxo-1,2-dihydro-6-quinolinesulfonamide, 1-(5-chloro-2-methoxy-6-(((1S)-2,2,3,3-tetrafluoro-1-methylpropyl)oxy)-3-pyridinyl)-N-3-isoxazolyl-2-oxo-1,2-dihydro-6-quinolinesulfonamide]",6.87
2,"COc1cc(-c2cccc(F)c2)c(Cl)cc1-n1c(=O)ccc2cc(S(=O)(=O)Nc3ccncn3)ccc21 (atropisomer, axis not shown; (M)) [Example 466, (M)-1-(2-chloro-3′-fluoro-5-methoxy-[1,1′-biphenyl]-4-yl)-2-oxo-N-(pyrimidin-4-yl)-1,2-dihydroquinoline-6-sulfonamide]",5.36
3,"COc1cc(-c2cc(F)cc(F)c2)c(C)cc1-n1c(=O)cc(C)c2cc(S(=O)(=O)Nc3ccon3)ccc21 (atropisomer, axis not shown; (P)) [Example 570, (P)-1-(3′,5′-difluoro-5-methoxy-2-methyl-4-biphenylyl)-N-3-isoxazolyl-4-methyl-2-oxo-1,2-dihydro-6-quinolinesulfonamide]",7.17
4,"COc1nc(Oc2cc(F)ccc2F)c(Cl)cc1-n1c(=O)ccc2cc(S(=O)(=O)Nc3ccon3)ccc21 [Example 1225, 1-(5-chloro-6-(2,5-difluorophenoxy)-2-methoxy-3-pyridinyl)-N-3-isoxazolyl-2-oxo-1,2-dihydro-6-quinolinesulfonamide]",6.07
5,"COc1nc(Oc2ccc(F)c(F)c2)c(Cl)cc1-n1c(=O)ccc2cc(S(=O)(=O)Nc3ccon3)ccc21 [Example 1222, 1-(5-chloro-6-(3,4-difluorophenoxy)-2-methoxy-3-pyridinyl)-N-3-isoxazolyl-2-oxo-1,2-dihydro-6-quinolinesulfonamide]",6.04
6,"COc1cc(Br)c(F)cc1-n1c(=O)ccc2cc(S(=O)(=O)Nc3cc(OCC4(C)CC4)ncn3)ccc21 (atropisomer, axis not shown; (P)) [Example 1189, (P)-1-(4-bromo-5-fluoro-2-methoxyphenyl)-N-(6-((1-methylcyclopropyl)methoxy)-4-pyrimidinyl)-2-oxo-1,2-dihydro-6-quinolinesulfonamide]",5.08
7,"COc1cc(-c2cccc(F)c2)c(Cl)cc1-n1c(=O)ccc2cc(S(=O)(=O)Nc3nncs3)ccc21 (atropisomer, axis not shown; (M)) [Example 354, (M)-1-(2-chloro-3′-fluoro-5-methoxy-[1,1′-biphenyl]-4-yl)-2-oxo-N-(1,3,4-THIADIAZOL-2-yl)-1,2-dihydroquinoline-6-sulfonamide]",5.23
8,"COc1nc(C2CC2)c(Cl)cc1-n1c(=O)ccc2cc(S(=O)(=O)Nc3ccon3)ccc21 (atropisomer, axis not shown; (M)) [Example 1229, (M)-1-(5-chloro-6-cyclopropyl-2-methoxy-3-pyridinyl)-N-3-isoxazolyl-2-oxo-1,2-dihydro-6-quinolinesulfonamide]",4.76

# Same assay, conditions: in-vitro Nav 1.7 PX data
row,pIC50,Structure (SMILES)
1,7.12,"COc1cc(-c2cc(OC)c(-n3c(=O)ccc4cc(S(=O)(=O)Nc5ncccn5)ccc43)cc2F)ccc1F [Example 1006, 1-(2,4′-difluoro-3′,5-dimethoxy-4-biphenylyl)-2-oxo-N-2-pyrimidinyl-1,2-dihydro-6-quinolinesulfonamide]"
2,7.54,"COc1ccc(-c2cc(F)cc(Cl)c2)cc1-n1c(=O)ccc2cc(S(=O)(=O)Nc3ccncn3)ccc21 (atropisomer, axis not shown; (P)) [Example 611, (P)-1-(3′-chloro-5′-fluoro-4-methoxy-3-biphenylyl)-2-oxo-N-4-pyrimidinyl-1,2-dihydro-6-quinolinesulfonamide]"
3,6.75,"COc1cc(-c2cccc(OC(C)C)c2)ccc1-n1c(=O)ccc2cc(S(=O)(=O)Nc3ncc(F)cn3)ccc21 [Example 827, N-(5-fluoro-2-pyrimidinyl)-1-(3-methoxy-3′-(1-methylethoxy)-4-biphenylyl)-2-oxo-1,2-dihydro-6-quinolinesulfonamide]"
4,7.64,"COc1cc(F)cc(-c2cc(OC)c(-n3c(=O)ccc4cc(S(=O)(=O)Nc5ncccn5)ccc43)cc2C)c1 [Example 957, 1-(3′-fluoro-5,5′-dimethoxy-2-methyl-4-biphenylyl)-2-oxo-N-2-pyrimidinyl-1,2-dihydro-6-quinolinesulfonamide]"
5,7.57,"COc1ccc(-c2cccc(Cl)c2)cc1-n1c(=O)ccc2cc(S(=O)(=O)Nc3ccon3)ccc21 [Example 841, 1-(3′-chloro-4-methoxy-3-biphenylyl)-N-3-isoxazolyl-2-oxo-1,2-dihydro-6-quinolinesulfonamide]"
6,6.55,"COc1cc(-c2ccc(F)c(F)c2)ccc1-n1c(=O)ccc2cc(S(=O)(=O)Nc3ccnc(C)n3)ccc21 [Example 900, 1-(3′,4′-difluoro-3-methoxy-4-biphenylyl)-N-(2-methyl-4-pyrimidinyl)-2-oxo-1,2-dihydro-6-quinolinesulfonamide]"

# Continued, molecule first:
row,Structure (SMILES),pIC50
1,"COc1cc(-c2cccc(Cl)c2C)c(F)cc1-n1c(=O)ccc2cc(S(=O)(=O)Nc3ccon3)ccc21 [Example 712, 1-(3′-chloro-2-fluoro-5-methoxy-2′-methyl-4-biphenylyl)-N-3-isoxazolyl-2-oxo-1,2-dihydro-6-quinolinesulfonamide]",8.22
2,"COc1cc(-c2cccc(C)c2F)c(F)cc1-n1c(=O)ccc2cc(S(=O)(=O)Nc3ccon3)ccc21 [Example 719, 1-(2,2′-difluoro-5-methoxy-3′-methyl-4-biphenylyl)-N-3-isoxazolyl-2-oxo-1,2-dihydro-6-quinolinesulfonamide]",7.31
3,"COc1nc(NC2CCCC2)c(Cl)cc1-n1c(=O)ccc2cc(S(=O)(=O)Nc3ccon3)ccc21 [Example 648, 1-(5-chloro-6-(cyclopentylamino)-2-methoxy-3-pyridinyl)-N-3-isoxazolyl-2-oxo-1,2-dihydro-6-quinolinesulfonamide]",6.01
4,"COc1cc(-c2cccc(C(F)(F)F)c2)c(F)cc1-n1c(=O)ccc2cc(S(=O)(=O)[N-][n+]3ccccc3)ccc21 [Example 817, ((1-(2-fluoro-5-methoxy-3′-(trifluoromethyl)-4-biphenylyl)-2-oxo-1,2-dihydro-6-quinolinyl)sulfonyl)(1-pyridiniumyl)azanide]",5.34

# Same assay, conditions: in-vitro Nav 1.7 PX data (PatchXpress)
row,pIC50,Structure (SMILES)
1,7.24,"COc1cc(-c2ccc(-n3c(=O)ccc4cc(S(=O)(=O)Nc5cccnn5)ccc43)c(OC)c2)ccc1Cl [Example 1038, 1-(4′-chloro-3,3′-dimethoxy-4-biphenylyl)-2-oxo-N-3-pyridazinyl-1,2-dihydro-6-quinolinesulfonamide]"
2,6.83,"COc1cc(-c2ccc(-n3c(=O)ccc4cc(S(=O)(=O)Nc5ncco5)ccc43)c(OC)c2)ccc1Cl [Example 1039, 1-(4′-chloro-3,3′-dimethoxy-4-biphenylyl)-N-1,3-oxazol-2-yl-2-oxo-1,2-dihydro-6-quinolinesulfonamide]"

# Continued, molecule first:
row,Structure (SMILES),pIC50
1,"COc1cc(-c2cc(C)ccc2C)ccc1-n1c(=O)ccc2cc(S(=O)(=O)Nc3ccon3)ccc21 [Example 1055, N-3-isoxazolyl-1-(3-methoxy-2′,5′-dimethyl-4-biphenylyl)-2-oxo-1,2-dihydro-6-quinolinesulfonamide]",7.80
2,"Cc1cc(-c2cc(OCC#N)c(-n3c(=O)ccc4cc(S(=O)(=O)Nc5ccon5)ccc43)cc2F)ccc1Cl [Example 622, 1-(4′-chloro-5-(cyanomethoxy)-2-fluoro-3′-methyl-[1,1′-biphenyl]-4-yl)-N-(isoxazol-3-yl)-2-oxo-1,2-dihydroquinoline-6-sulfonamide]",6.51
3,"O=c1ccc2cc(S(=O)(=O)Nc3nncs3)ccc2n1-c1ccc(-c2cc(F)cc(F)c2)cc1C1CC1 [Example 1046, 1-(3-cyclopropyl-3′,5′-difluoro-4-biphenylyl)-2-oxo-N-1,3,4-thiadiazol-2-yl-1,2-dihydro-6-quinolinesulfonamide]",6.95
4,"COc1cc(-c2ccccc2C(F)(F)F)ccc1-n1c(=O)ccc2cc(S(=O)(=O)Nc3ccon3)ccc21 [Example 1052, N-3-isoxazolyl-1-(3-methoxy-2′-(trifluoromethyl)-4-biphenylyl)-2-oxo-1,2-dihydro-6-quinolinesulfonamide]",7.27
5,"COc1cc(-c2cc(C)c(F)cc2F)ccc1-n1c(=O)ccc2cc(S(=O)(=O)Nc3ccon3)ccc21 [Example 1065, 1-(2′,4′-difluoro-3-methoxy-5′-methyl-4-biphenylyl)-N-3-isoxazolyl-2-oxo-1,2-dihydro-6-quinolinesulfonamide]",8.05

# Same assay, conditions: in-vitro PatchXpress (PX)
row,pIC50,Structure (SMILES)
1,7.68,"COc1cc(-c2cc(F)c(F)cc2F)c(F)cc1-n1c(=O)ccc2cc(S(=O)(=O)Nc3ccon3)ccc21 (atropisomer, axis not shown; (M)) [Example 517, (M)-N-3-isoxazolyl-2-oxo-1-(2,2′,4′,5′-tetrafluoro-5-methoxy-4-biphenylyl)-1,2-dihydro-6-quinolinesulfonamide]"
2,7.07,"COc1nc(-c2cc(F)cc(Cl)c2)c(Cl)cc1-n1c(=O)ccc2cc(S(=O)(=O)Nc3ccon3)ccc21 [Example 449, 1-(5-chloro-6-(3-chloro-5-fluorophenyl)-2-methoxypyridin-3-yl)-N-(isoxazol-3-yl)-2-oxo-1,2-dihydroquinoline-6-sulfonamide]"
